{
  "source": "patent US10974081B2",
  "about": "“Treatment and prevention of sleep disorders” (Purdue Pharma L.P., priority 2016, dated 2021)",
  "key": {"[1]": {"assay": "Free unbound compound fraction, equilibrium dialysis of rat serum", "assay_type": "in vitro ADME", "settings": "male, Crl:CD (SD), rat, rat serum; 2 μg/mL, 24 hours dialysis at 37° C.", "experimental": "The extent of in vitro binding of Compound (1F) or W-212393 to rat serum was determined as an assessment of the availability of free unbound compound for modulating receptor activity according to a procedure disclosed in, e.g., Example 15 of U.S. Pat. No. 9,290,488, which is hereby incorporated by reference in its entirety. Serum from rats containing a tested compound in one chamber of a dialysis cell was dialyzed with phosphate buffered saline (“PBS”) in the other chamber; thereafter, the supernatant from each chamber was analyzed for the concentration of the tested compound present. […] The final concentration of each tested compound in the serum sample was adjusted to 2 μg/mL by adding an appropriate volume of PBS. A cell suitable for equilibrium dialysis was used in the determinations. A SPECTRA/POR dialysis membrane (with molecular mass cutoff of 12,000-14,000 Da, Spectrum Laboratories, Inc., Rancho Dominguez, Calif.) separated the dialysis cell into two chambers. A 500 μL aliquot of the serum sample containing a tested compound was applied to one chamber (serum chamber) of the dialysis cell. A 500 μL aliquot of PBS was applied to the other chamber (PBS chamber) of the dialysis cell. The dialysis study was conducted in duplicate for each tested compound. After 24 hours of equilibrium dialysis at 37° C., 30 μL of liquid from the serum chamber of the dialysis cell was collected and to this was added 270 μL of fresh PBS (this combination was designated Sample “A”). Then, 270 μL of liquid from the PBS chamber of the dialysis cell was collected and to this was added 30 μL of control rat serum (i.e., rat serum never exposed to any test compound, this combination was designated Sample “B”). […] Each supernatant was analyzed by LC-MS-MS. […] Thereafter, the percentage of free unbound tested compound was calculated from the ratio of the tested compound amount determined from Sample B divided by the sum of the tested compound amounts determined from Sample A and Sample B."}, "rat liver microsomes": {"system": "rat liver microsomes", "assay": "In vitro metabolic stability, rat liver microsomes", "assay_type": "in vitro ADME", "settings": "2 μM, % remaining after 30 minutes at 37° C.", "experimental": "The comparative in vitro metabolic stabilities of Compounds (1F), […], and W-212393 were determined upon exposure to human liver microsomes or rat liver microsomes according to a procedure disclosed in, e.g., Example 14 of U.S. Pat. No. 9,290,488, which is hereby incorporated by reference in its entirety. Liver microsomes from Crj;CD rats or humans were incubated with 2 μM of each tested compound; thereafter, the supernatant was analyzed by HPLC-MS for the concentration of the tested compound present. Human liver microsomes, pooled, 20 mg/mL, were obtained from […] #H0610). […] Alternatively and if desired, rat liver microsomes can be obtained commercially from, e.g., XenoTech (Sprague-Dawley rat liver microsomes, pooled, 20 mg/mL, cat #R1000). β-NADPH (β-nicotinamide adenine dinucleotide 2'-phosphate reduced tetrasodium salt hydrate) was obtained from Oriental Yeast Co., Ltd. (Tokyo, Japan). Each tested compound, present at an initial concentration of 2 μM, was incubated at 37° C. in the presence of 0.5 mg/mL of either human microsomes or rat microsomes in suspension in 50 mM Tris-HCl buffer (7.4 pH), 150 mM KCl, 10 mM MgCl2, and 1 mM β-NADPH. Incubation was initiated upon the addition of a 100-fold concentrated solution of the tested compound to one of the microsome preparations. Incubation was terminated by addition of a two-fold volume of a 1/1 mixture of acetonitrile/methanol after either 0 minutes or 30 minutes of incubation at 37° C. Thereafter, proteins and other macromolecules from the microsome preparation were removed by centrifugation. All incubations were conducted in duplicate. […] The HPLC system consisted of a Waters 2795 separations module (Waters Corp., Milford, Mass.) equipped with an inline degasser, temperature controlled auto-sampler, and column oven. The analytical column was a Waters […], 2.1 mm×20 mm column. The mass analyzer was a Waters ZQ, single quadrupole mass spectrometer equipped with an electrospray ionization source operating in the positive ionization mode and utilizing a stainless steel spray capillary. […]"}, "[2]": {"assay": "In vivo functional observational battery (FOB)", "settings": "male, Crl:CD(SD), rat, in vivo, po"}, "rats": {"system": "rats", "assay": "In vivo functional observational battery (FOB)", "settings": "for Behavior: 1 mg/kg"}, "[3]": {"settings": "3 mg/kg, 0.5 h after administration"}, "[4]": {"settings": "3 mg/kg, 1 h after administration"}, "[5]": {"settings": "3 mg/kg, 2 h after administration"}, "[6]": {"settings": "3 mg/kg, 4 h after administration"}, "[7]": {"settings": "3 mg/kg, 6 h after administration"}, "[8]": {"settings": "300 mg/kg, 0.5 h after administration"}, "[9]": {"settings": "300 mg/kg, 1 h after administration"}, "[10]": {"settings": "300 mg/kg, 2 h after administration"}, "[11]": {"settings": "300 mg/kg, 4 h after administration"}, "[12]": {"settings": "300 mg/kg, 6 h after administration"}},
  "data": [
    {"smiles": "CNC(=O)Cn1c(=O)n(C2CCN([C@@H]3Cc4cccc5cccc3c45)CC2)c2ccccc21", "note": "[Compound W-212393]", "values": [
      {"measurement": "fraction unbound at 24 h, 2 μg/mL", "setting": "[1]", "result": "< 0.001"},
      {"measurement": "Rat Metabolic Stability (%)", "setting": "rat liver microsomes", "result": 58.4, "unit": "%"},
      {"measurement": "NOAEL", "setting": "[2]", "result": 1, "unit": "mg/kg"},
      {"measurement": "Behavior", "setting": "rats; 0.5 h after administration", "result": "N"},
      {"measurement": "Behavior", "setting": "rats; 1 h after administration", "result": "N"},
      {"measurement": "Behavior", "setting": "rats; 2 h after administration", "result": "N"},
      {"measurement": "Behavior", "setting": "rats; 4 h after administration", "result": "N"},
      {"measurement": "Behavior", "setting": "rats; 6 h after administration", "result": "N"},
      {"measurement": "Biting behavior", "setting": "rats; [3]", "result": "N"},
      {"measurement": "Hvpoactivity", "setting": "rats; [3]", "result": "N"},
      {"measurement": "Jumping", "setting": "rats; [3]", "result": "N"},
      {"measurement": "Biting behavior", "setting": "rats; [4]", "result": "1 of 6"},
      {"measurement": "Hvpoactivity", "setting": "rats; [4]", "result": "6 of 6"},
      {"measurement": "Jumping", "setting": "rats; [4]", "result": "3 of 6"},
      {"measurement": "Biting behavior", "setting": "rats; [5]", "result": "N"},
      {"measurement": "Hvpoactivity", "setting": "rats; [5]", "result": "N"},
      {"measurement": "Jumping", "setting": "rats; [5]", "result": "2 of 6"},
      {"measurement": "Biting behavior", "setting": "rats; [6]", "result": "N"},
      {"measurement": "Hvpoactivity", "setting": "rats; [6]", "result": "N"},
      {"measurement": "Jumping", "setting": "rats; [6]", "result": "N"},
      {"measurement": "Biting behavior", "setting": "rats; [7]", "result": "N"},
      {"measurement": "Hvpoactivity", "setting": "rats; [7]", "result": "N"},
      {"measurement": "Jumping", "setting": "rats; [7]", "result": "N"},
      {"measurement": "Abdominal position/side lying position", "setting": "rats; [8]", "result": "6 of 6"},
      {"measurement": "Biting behavior", "setting": "rats; [8]", "result": "3 of 6"},
      {"measurement": "Decreased muscle tone", "setting": "rats; [8]", "result": "6 of 6"},
      {"measurement": "Jumping", "setting": "rats; [8]", "result": "2 of 6"},
      {"measurement": "Loss of auricular reflex/righting reflex", "setting": "rats; [8]", "result": "6 of 6"},
      {"measurement": "Loss of flexed or extension reflex", "setting": "rats; [8]", "result": "6 of 6"},
      {"measurement": "Loss of pain reaction", "setting": "rats; [8]", "result": "6 of 6"},
      {"measurement": "Respiratory irregularity", "setting": "rats; [8]", "result": "6 of 6"},
      {"measurement": "Abdominal position/side lying position", "setting": "rats; [9]", "result": "6 of 6"},
      {"measurement": "Biting behavior", "setting": "rats; [9]", "result": "N"},
      {"measurement": "Decreased muscle tone", "setting": "rats; [9]", "result": "6 of 6"},
      {"measurement": "Jumping", "setting": "rats; [9]", "result": "N"},
      {"measurement": "Loss of auricular reflex/righting reflex", "setting": "rats; [9]", "result": "6 of 6"},
      {"measurement": "Loss of flexed or extension reflex", "setting": "rats; [9]", "result": "6 of 6"},
      {"measurement": "Loss of pain reaction", "setting": "rats; [9]", "result": "6 of 6"},
      {"measurement": "Respiratory irregularity", "setting": "rats; [9]", "result": "6 of 6"},
      {"measurement": "Abdominal position/side lying position", "setting": "rats; [10]", "result": "6 of 6"},
      {"measurement": "Biting behavior", "setting": "rats; [10]", "result": "N"},
      {"measurement": "Decreased muscle tone", "setting": "rats; [10]", "result": "6 of 6"},
      {"measurement": "Jumping", "setting": "rats; [10]", "result": "N"},
      {"measurement": "Loss of auricular reflex/righting reflex", "setting": "rats; [10]", "result": "6 of 6"},
      {"measurement": "Loss of flexed or extension reflex", "setting": "rats; [10]", "result": "6 of 6"},
      {"measurement": "Loss of pain reaction", "setting": "rats; [10]", "result": "6 of 6"},
      {"measurement": "Respiratory irregularity", "setting": "rats; [10]", "result": "6 of 6"},
      {"measurement": "Abdominal position/side lying position", "setting": "rats; [11]", "result": "6 of 6"},
      {"measurement": "Biting behavior", "setting": "rats; [11]", "result": "N"},
      {"measurement": "Decreased muscle tone", "setting": "rats; [11]", "result": "6 of 6"},
      {"measurement": "Jumping", "setting": "rats; [11]", "result": "N"},
      {"measurement": "Loss of auricular reflex/righting reflex", "setting": "rats; [11]", "result": "6 of 6"},
      {"measurement": "Loss of flexed or extension reflex", "setting": "rats; [11]", "result": "6 of 6"},
      {"measurement": "Loss of pain reaction", "setting": "rats; [11]", "result": "6 of 6"},
      {"measurement": "Respiratory irregularity", "setting": "rats; [11]", "result": "6 of 6"},
      {"measurement": "Abdominal position/side lying position", "setting": "rats; [12]", "result": "6 of 6"},
      {"measurement": "Biting behavior", "setting": "rats; [12]", "result": "N"},
      {"measurement": "Decreased muscle tone", "setting": "rats; [12]", "result": "6 of 6"},
      {"measurement": "Jumping", "setting": "rats; [12]", "result": "N"},
      {"measurement": "Loss of auricular reflex/righting reflex", "setting": "rats; [12]", "result": "6 of 6"},
      {"measurement": "Loss of flexed or extension reflex", "setting": "rats; [12]", "result": "6 of 6"},
      {"measurement": "Loss of pain reaction", "setting": "rats; [12]", "result": "6 of 6"},
      {"measurement": "Respiratory irregularity", "setting": "rats; [12]", "result": "6 of 6"}
    ]}
  ]
}
